Reference: article PMC2928807, “Chitin Synthases from Saprolegnia Are Involved in Tip Growth and Represent a Potential Target for Anti-Oomycete Drugs” (PLoS Pathogens, 2010)

T1: SmCHS2 (chitin synthase 2) (Saprolegnia monoica, UniProt D7NQS9)
T1 construct: full-length SmCHS2 (962 amino acids) fused to eGFP at its C-terminus, expressed in Pichia pastoris, CHAPS extract of membranes
T1 sequence (D7NQS9 1-962): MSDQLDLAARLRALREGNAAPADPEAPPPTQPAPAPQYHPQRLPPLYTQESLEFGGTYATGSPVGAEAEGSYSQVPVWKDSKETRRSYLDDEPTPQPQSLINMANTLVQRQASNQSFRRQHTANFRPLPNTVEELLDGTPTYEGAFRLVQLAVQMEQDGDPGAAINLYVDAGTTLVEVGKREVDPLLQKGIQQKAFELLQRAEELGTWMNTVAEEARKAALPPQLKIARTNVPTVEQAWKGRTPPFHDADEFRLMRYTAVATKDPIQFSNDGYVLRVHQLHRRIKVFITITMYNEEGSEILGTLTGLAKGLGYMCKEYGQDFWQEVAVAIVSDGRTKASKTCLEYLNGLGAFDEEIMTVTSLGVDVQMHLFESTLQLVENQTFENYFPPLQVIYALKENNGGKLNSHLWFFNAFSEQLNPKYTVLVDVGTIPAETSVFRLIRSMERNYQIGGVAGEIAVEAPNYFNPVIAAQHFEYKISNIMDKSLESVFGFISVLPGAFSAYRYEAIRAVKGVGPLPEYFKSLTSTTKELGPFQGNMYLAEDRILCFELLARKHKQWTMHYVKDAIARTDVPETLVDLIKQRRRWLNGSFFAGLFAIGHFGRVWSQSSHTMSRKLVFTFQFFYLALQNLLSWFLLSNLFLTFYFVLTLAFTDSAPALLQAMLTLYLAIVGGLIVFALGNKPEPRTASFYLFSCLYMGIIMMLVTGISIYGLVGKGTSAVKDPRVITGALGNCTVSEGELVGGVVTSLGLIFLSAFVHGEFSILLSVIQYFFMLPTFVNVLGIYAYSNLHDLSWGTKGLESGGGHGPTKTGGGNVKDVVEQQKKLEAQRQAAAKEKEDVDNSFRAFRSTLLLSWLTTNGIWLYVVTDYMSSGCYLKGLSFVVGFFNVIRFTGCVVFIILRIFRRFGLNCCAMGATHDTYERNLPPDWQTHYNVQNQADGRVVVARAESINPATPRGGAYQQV


Legend:
[1] = target: T1, SmCHS2 (chitin synthase 2); assay: radiometric chitin synthase assay ([…]-UDP-GlcNAc) on CHAPS membrane extract of recombinant Pichia; Dixon plots; assay type: biochemical
[2] = substrate: CC(=O)N[C@H]1[C@@H](OP(=O)(O)OP(=O)(O)OC[C@H]2O[C@@H](n3ccc(=O)[nH]c3=O)[C@H](O)[C@@H]2O)O[C@H](CO)[C@@H](O)[C@@H]1O; assay: radiometric chitin synthase assay on CHAPS membrane extract of recombinant Pichia; apparent Km; assay type: biochemical, Saprolegnia monoica

Ki [1]	Molecule	Km [2]
4.6 µM	C[C@@H]([C@H](N)C(=O)N[C@H](C(=O)O)[C@H]1O[C@@H](n2ccc(=O)[nH]c2=O)[C@H](O)[C@@H]1O)[C@H](O)c1ccc(O)cn1 [nikkomycin Z]	–
–	SmCHS2 (chitin synthase 2) (Saprolegnia monoica) (protein, full-length SmCHS2 (962 amino acids) fused to eGFP at its C-terminus, expressed in Pichia pastoris, CHAPS extract of membranes) MSDQLDLAARLRALREGNAAPADPEAPPPTQPAPAPQYHPQRLPPLYTQESLEFGGTYATGSPVGAEAEGSYSQVPVWKDSKETRRSYLDDEPTPQPQSLINMANTLVQRQASNQSFRRQHTANFRPLPNTVEELLDGTPTYEGAFRLVQLAVQMEQDGDPGAAINLYVDAGTTLVEVGKREVDPLLQKGIQQKAFELLQRAEELGTWMNTVAEEARKAALPPQLKIARTNVPTVEQAWKGRTPPFHDADEFRLMRYTAVATKDPIQFSNDGYVLRVHQLHRRIKVFITITMYNEEGSEILGTLTGLAKGLGYMCKEYGQDFWQEVAVAIVSDGRTKASKTCLEYLNGLGAFDEEIMTVTSLGVDVQMHLFESTLQLVENQTFENYFPPLQVIYALKENNGGKLNSHLWFFNAFSEQLNPKYTVLVDVGTIPAETSVFRLIRSMERNYQIGGVAGEIAVEAPNYFNPVIAAQHFEYKISNIMDKSLESVFGFISVLPGAFSAYRYEAIRAVKGVGPLPEYFKSLTSTTKELGPFQGNMYLAEDRILCFELLARKHKQWTMHYVKDAIARTDVPETLVDLIKQRRRWLNGSFFAGLFAIGHFGRVWSQSSHTMSRKLVFTFQFFYLALQNLLSWFLLSNLFLTFYFVLTLAFTDSAPALLQAMLTLYLAIVGGLIVFALGNKPEPRTASFYLFSCLYMGIIMMLVTGISIYGLVGKGTSAVKDPRVITGALGNCTVSEGELVGGVVTSLGLIFLSAFVHGEFSILLSVIQYFFMLPTFVNVLGIYAYSNLHDLSWGTKGLESGGGHGPTKTGGGNVKDVVEQQKKLEAQRQAAAKEKEDVDNSFRAFRSTLLLSWLTTNGIWLYVVTDYMSSGCYLKGLSFVVGFFNVIRFTGCVVFIILRIFRRFGLNCCAMGATHDTYERNLPPDWQTHYNVQNQADGRVVVARAESINPATPRGGAYQQV	150+12 µM
